From patent publication US8445707B1, “Compound, composition and uses thereof” (Krisani Biosciences (P) Ltd., priority 2012, dated 2013)
Where two headings read alike, the source gives them in different places.

Assay: Pharmacokinetics of KB-ND-002 compared to Cysteamine Hydrochloride and EPA in mouse plasma and brain after oral administration
Type: in vivo, male mice
Conditions: for maximum concentration of Cysteamine after dosing compared to endogenous levels in control group animals: analyte Cysteamine
Experimental: Method of Treatment, Testing and Results Using the Final Compound of formula 1 at Charles River Labs: Pharmacokinetics of KB-ND-002 compared to Cysteamine Hydrochloride and EPA in Mouse Plasma and Brain
Parameter estimation was performed on mean plasma and brain Eicosapentanoiec acid, KB-ND-002 and Cysteamine concentration vs nominal sampling time values from 3 animals per timepoint. Parameter estimates were derived for each analyte, and matrix using a non-compartmental approach in WinNonlin Enterprise version 5.2.1 (Pharsight Corp., Mountain View, Calif., USA) in accordance with Charles River standard operating procedures. A WinNonlin regression analysis was performed with each concentration vs time profile reviewed by means of visual inspection to appropriately characterise the apparent terminal elimination phase and optimise the reliability of the lambda-z estimation.
Following Oral Administration of KB-ND-002 (Formula 1), Cysteamine or Eicosapentanoiec Acid in Male Mice, Concentration Vs Time Profiles were Partially Evaluable for PK Purposes.

NCCS [Cysteamine]
systemic exposure to Cysteamine, comparison between groups (112 mg/kg Cysteamine administered): greatest | maximum concentration of Cysteamine after dosing compared to endogenous levels in control group animals (brain, oral, male mice): up to 10 fold | maximum concentration of Cysteamine after dosing compared to endogenous levels in control group animals (plasma, oral, male mice): over 400 fold | Cysteamine concentrations quantifiable over sampling period (brain, sampling duration 5 h): quantifiable for the entire duration of sampling | Tmax (male, mouse, brain, Group 4, 112 mg/kg Cysteamine oral, read-out: time of peak concentration of Cysteamine (Tmax)): 30 min | Tmax (male, mouse, plasma, Group 4, 112 mg/kg Cysteamine oral, read-out: time of peak concentration of Cysteamine (Tmax)): 4.8 min | Cysteamine concentrations observed over sampling period (plasma, only following administration of Cysteamine (Group 4)): only consistently observed for the entire duration of sampling

CC/C=C\C/C=C\C/C=C\C/C=C\C/C=C\CCCC(=O)O [Eicosapentanoiec acid]
systemic exposure to Eicosapentanoiec acid, comparison between groups (112 mg/kg Eicosapentanoiec acid administered): greatest | maximum concentration of Eicosapentanoiec acid after dosing compared to endogenous levels in control group animals (analyte Eicosapentanoiec acid, plasma, oral, male mice): over 20 fold | Tmax (male, mouse, brain, Group 5, 112 mg/kg Eicosapentanoiec acid oral, read-out: time of peak concentration of Eicosapentanoiec acid (Tmax)): 60 min | Tmax (male, mouse, plasma, Group 5, 112 mg/kg Eicosapentanoiec acid oral, read-out: time of peak concentration of Eicosapentanoiec acid (Tmax)): 60 min | Eicosapentanoiec acid concentrations quantifiable over sampling period (plasma and brain, sampling duration 5 h): quantifiable for the entire duration of sampling

CC/C=C\C/C=C\C/C=C\C/C=C\C/C=C/CCCC(=O)NCCSC(C)=O [KB-ND-002]
Kp (male, mouse, brain and plasma, oral, brain at highest dose vs plasma after low dose (60 mg/kg), read-out: systemic exposure to KB-ND-002 in brain relative to plasma): < 0.01 | dose proportionality based on dose normalised estimates of Cmax and AUC(0-t) (plasma, oral KB-ND-002): sub-proportional
